Key:
[1] = system: Z domain protein gene with amber codon at seventh position; assay: Expression of amber mutant Z domain protein with unnatural amino acid, SDS-PAGE and MALDI-TOF MS; format: cell-based, E. coli
Procedure: To confirm that the observed phenotype is caused by the site-specific incorporation of p-ethylthiocarbonyl-L-phenylalanine by the mutRNACUA-mutTyrRS pair, an amber codon was substituted for the seventh position (Tyr) in the gene encoding the Z domain protein (Nilsson et al., Protein Eng. 1987, 1, 107-113) fused to a C-terminal His6 tag. Protein was expressed in the presence or absence of 1 mM p-ethylthiocarbonyl-L-phenylalanine and purified by Ni-NTA chromatography. […]
Additional evidence for the site specific incorporation of p-ethylthiocarbonyl-L-phenylalanine was obtained by matrix-assisted laser desorption/ionization time-of-flight mass spectrometry (MALDI-TOF MS). In addition to the observation of an experimental average mass of 8006 Da for the intact Tyr p-ethylthiocarbonyl-L-phenylalanine protein (MTheoretical=8002 Da, see, FIG. 16), a minor peak corresponding to the mutant protein without the first methionine moiety in acetylated form (MExperimental=7913 Da vs. MTheoretical=7913 Da) and a major peak corresponding to the mutant protein without the first methionine moiety (MExperimental=7871 Da vs. MTheoretical=7871 Da) were also detected (FIG. 16). Another major peak of 7828 Da was present that corresponds to Z domain protein containing a free carboxylic acid group instead of a thioester moiety at position 7, which has a calculated mass of 7827 Da in its protonated form. […]

[2] = Photodecaging of O-(2-nitrobenzyl)-L-tyrosine by irradiation at 365 nm, LC/MS; format: physicochemical
Procedure: FIG. 9 provides concentration curve assays illustrating the experimentally observed photodecaging (photoactivation) of the caged tyrosine molecule O-(2-nitrobenzyl)-L-tyrosine. Photodecaging of O-(2-nitrobenzyl)-L-tyrosine was illustrated by irradiation of a 0.2 mM amino acid solution in water using a handheld UV lamp (365 nm at 10 mm distance). Aliquots were taken at specific time points and analyzed by LC/MS. The concentrations of O-(2-nitrobenzyl)-L-tyrosine (squares) and the corresponding decaged species (circles) are shown.
Irradiation of O-(2-nitrobenzyl)-L-tyrosine (synthesized from L-tyrosine as described in Miller et al., Neuron 1998, 20, 619) at 365 nm induces cleavage of the benzylic CO-bond and rapid formation of the decaged amino acid (t1/2=4 min, see supporting information), as illustrated schematically in FIG. 8.
Photodecaging of O-(2-nitrobenzyl)-L-tyrosine can be experimentally observed, as illustrated in the experimental results shown in FIG. 9. As shown in this figure, the photodecaging of O-(2-nitrobenzyl)-L-tyrosine was studied by irradiation of a 0.2 mM solution in water (one well of a six-well plate) using a handheld UV lamp (365 nm at 10 mm distance). Aliquots were taken at specific time points and analyzed by LC/MS. 50% decaging was achieved after approximately four minutes.

[3] = system: human superoxide dismutase bearing amber codon at position 33 (hSOD-33TAG-His6); assay: Expression of hSOD-33TAG-His6 in yeast with mutant E. coli leucyl-tRNA synthetases, SDS-PAGE; format: cell-based; details: yeast host cells
From the text: To increase hydrolytic activity towards leucine, residues T252 and V338 in the E. coli synthetase editing domain were exchanged to alanine by Quikchange mutagenesis in order to enlarge the binding pocket (see, FIG. 6A). […] High selectivity of this mutant was further confirmed by MALDI TOF MS of hSOD-33TAG-His6.
To evolve a more efficient oNBS translation system, the selected clone 3H11 synthetase was diversified by error prone PCR, again using three different mutagenicities, to introduce one, two or five mutations per gene, yielding an overall diversity of 1×10^7 clones. The positions in the leucyl-tRNA-synthetase enzyme that were targeted for randomization were M40, L41, Y499, Y527 and H537. The protocols used herein follow the general methodologies described in the art, e.g., Wu et al., Journal of the American Chemical Society 126:14306-14307 (2004); and International Application No. PCT/US 2005/034002, filed Sep. 21, 2005, by Deiters et al.
Sequencing of the G2-6 clone identified five additional mutations throughout the enzyme in comparison to the initial 3H11 synthetase starting material (positions S31G, T247A, T248S, M617I and V673A). Additional mutations (caused during library construction) found in all clones throughout the library were also observed as follows: H67R, N196T, R262A and S497C. […]

Molecule: CC(=O)CC(=O)c1ccc(C[C@H](N)C(=O)O)cc1 [p-(3-oxobutanoyl)-L-phenylalanine]
- Fidelity for the incorporation ([1]; MALDI-TOF MS, signal-to-noise ratio >400, evolved mutRNACUA^Tyr-mutTyrRS pair): > 99%
- Incorporation efficiency compared to tyrosine ([1]; Z domain protein, seventh position, 1 mM unnatural amino acid, SDS-PAGE): around 30%

Molecule: N[C@@H](Cc1ccc(OCc2ccccc2[N+](=O)[O-])cc1)C(=O)O [O-(2-nitrobenzyl)-L-tyrosine]
- Decaging ([2]; after approximately four minutes, 0.2 mM solution in water, handheld UV lamp 365 nm at 10 mm distance): 50%
- half-life at 0.2 mM ([2]; solution in water under UV irradiation (365 nm), irradiation at 365 nm, read-out: t1/2 of formation of the decaged amino acid): 4 min

B1: clone 3H11 (protein)
chain: MEEQYRPEEIESKVQLHWDEKRTFEVTEDESKEKYYCLSWSPYPSGRLHMGHVRNYTIGDVIARYQRMLGKNVLQPIGWDAFGLPAEGAAVKNNTAPAPWTYDNIAYMKNQLKMLGFGYDWSRELATCTPEYYRWEQKFFTELYKKGLVYKKTSAVNWCPNDQTVLANEQVIDGCCWRCDTKVERKEIPQWFIKITAYADELLNDLDKLDHWPDTVKTMQRNWIGRSEGVEITFNVNDYDNTLTVYTTRPDTFMGCTYLAVAAGHPLAQKAAENNPELAAFIDECRNTKVAEAEMATMEKKGVDTGFKAVHPLTGEEIPVWAANFVLMEYGTGAVMAVPGHDQRDYEFASKYGLNIKPVILAADGSEPDLSQQALTEKGVLFNSGEFNGLDHEAAFNAIADKLTAMGVGERKVNYRLRDWGVSRQRYWGAPIPMVTLEDGTVMPTPDDQLPVILPEDVVMDGITSPIKADPEWAKTTVNGMPALRETDTFDTFMESCWIYARYTCPQYKEGMLDSEAANYWLPVDIAIGGIEHAIMGLLYFRFFHKLMRDAGMVNSDEPAKQLLCQGMVLADAFYYVGENGERNWVSPVDAIVERDEKGRIVKAKDAAGHELVYTGMSKMSKSKNNGIDPQVMVERYGADTVRLFMMFASPADMTLEWQESGVEGANRFLKRVWKLVYEHTAKGDVAALNVDALTENQKALRRDVHKTIAKVTDDIGRRQTFNTAIAAIMELMNKLAKAPTDGEQDRALMQEALLAVVRMLNPFTPHICFTLWQELKGEGDIDNAPWPVADEKAMVEDSTLVVVQVNGKVRAKITVPVDATEEQVRERAGQEHLVAKYLDGVTVRKVIYVPGKLLNLVVG
modifications: o-nitrobenzylcysteine aminoacyl-tRNA synthetase
- oNBS incorporation efficiency compared to an oNBC amino acid (in words) [3]: twofold reduced efficiency

Source: US9102932B2, “Orthogonal translation components for the in vivo incorporation of unnatural amino acids” (The Scripps Research Institute, priority 2004, dated 2015)
